Measured values from PubChem BioAssay (NCI).
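Five compound concentrations were applied to cells in 96-well plates for 48 hours; endpoints were derived by simple linear interpolation of the resulting dose-response curve. TGI: total growth inhibition.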

Assays:
Assay in all cases: DTP human tumour cell line panel, 48 h
HS 578T breast = test system: HS 578T breast
OVCAR-8 ovarian = test system: OVCAR-8 ovarian
SR leukemia = test system: SR leukemia
SW-620 colon = test system: SW-620 colon
COLO 205 colon = test system: COLO 205 colon
HCC-2998 colon = test system: HCC-2998 colon
PC-3 prostate = test system: PC-3 prostate
NCI-H23 lung = test system: NCI-H23 lung
HOP-62 NSCLC = test system: HOP-62 NSCLC
UACC-62 melanoma = test system: UACC-62 melanoma

| Compound | TGI (HS 578T breast) | TGI (OVCAR-8 ovarian) | TGI (SR leukemia) | TGI (SW-620 colon) | TGI (COLO 205 colon) | TGI (HCC-2998 colon) | TGI (PC-3 prostate) | TGI (NCI-H23 lung) | TGI (HOP-62 NSCLC) | TGI (UACC-62 melanoma) |
| --- | --- | --- | --- | --- | --- | --- | --- | --- | --- | --- |
| Cc1c(CN2CCN(C)CC2)c(CN2CCN(C)CC2)c(C)n1-c1ccc(Cl)cc1 | 70.6 µM | 51.6 µM | 40.8 µM | > 100 µM | 55.5 µM | > 100 µM | > 100 µM | > 100 µM | > 100 µM | 33.9 µM |
| O=c1[nH]c2nc3ccccc3nc2[nH]c1=O | > 100 µM | > 100 µM | > 100 µM | > 100 µM | > 100 µM | > 100 µM | > 100 µM | > 100 µM | > 100 µM | > 100 µM |
| C[C@]12CCC(=O)[C@@H](CCC3=CC(=O)C=CC3=O)[C@@H]1CCC2=O | 43.6 µM | > 69.5 µM | > 100 µM | > 58.7 µM | 31.2 µM | 31.4 µM | 27.5 µM | 38.2 µM | > 100 µM | 44.1 µM |
| COc1cc(CC(C)NC(C)=O)cc(OC)c1 (stereo not given) | > 100 µM | > 100 µM | > 100 µM | > 100 µM | > 100 µM | > 100 µM | > 100 µM | > 100 µM | > 100 µM | > 100 µM |
| CS(=O)(=O)Nc1ccc2c(c1)N(S(C)(=O)=O)CC2CCl (stereo not given) | > 100 µM | > 100 µM | > 100 µM | > 100 µM | > 100 µM | > 100 µM | > 100 µM | > 100 µM | > 100 µM | > 100 µM |
| COc1ccccc1C1Nn2c(nc3ccccc3c2=O)N1c1ccc(C)cc1 (stereo not given) | 27.9 µM | 17 µM | 6.43 µM | 18.2 µM | 21.2 µM | 17.5 µM | 10.8 µM | 29.3 µM | 20.2 µM | 22.2 µM |
| COC(=O)C1(CCCCCBr)CCCCCCCCCCC1=O (stereo not given) | > 100 µM | > 100 µM | 55.7 µM | > 100 µM | > 100 µM | > 100 µM | > 100 µM | > 100 µM | > 100 µM | > 100 µM |
| C/C=C(/C)C(=O)OC1CC(C)[C@H]2CC(=O)C(C)=C2CC1C(C)(C)OC(C)=O (stereo not given in full) | > 100 µM | > 100 µM | 78.9 µM | > 100 µM | 43.8 µM | 72.1 µM | > 100 µM | > 100 µM | 95 µM | 48.6 µM |
| NC(=O)c1csc(C2(O)COC(CO)C2O)n1 (stereo not given) | > 100 µM | > 100 µM | > 100 µM | > 100 µM | > 100 µM | > 100 µM | > 100 µM | > 100 µM | > 100 µM | > 100 µM |
